Test results: patent US10239933B2, “Compositions and methods for modulating thrombin generation” (The Children's Hospital of Philadelphia, priority 2011, dated 2019)
“Also recorded” adds a separate entry of the source. Read-outs that look alike come from different tables or passages of the source. Each block holds one molecule with its values, some of them ahead of it. Ends that are not written are not given here. * marks the point of attachment. X2 = CN(c1ccccc1)c1ccc2c(-c3ccccc3S(=O)(=O)N3CCC(C(=O)NCCCCCN4C(=O)CC(*)C4=O)CC3)c3ccc(=[N+](C)c4ccccc4)cc-3oc2c1; X1 = O=C1OC2(c3cc(F)c(O)cc3Oc3cc(O)c(F)cc32)c2ccc(N3C(=O)CC(*)C3=O)cc21

Legend:
[1] = target: T1, FV-810 (Homo sapiens, UniProt P12259, DEL839-1519); assay: Clotting assay, FV-deficient plasma supplemented with FV-810 (FV-DT); format: biochemical; settings: FV-deficient plasma; FIG. 8A: 0.25 nM FV-810, peptides at 5 μM
T1 construct: amino acids 1-28 are a signal peptide that is cleaved and numbering begins at residue 29; made in house
Method: (§1) Residual clotting activity of Factor V variants was determined by prothrombin time-based clotting assays. Factor V variants were incubated with either the FVBR or s46 peptide, after which the mixtures were mixed with Factor V deficient plasma and clotting times were measured. Where indicated, the Factor V variants were activated by pre-incubation with thrombin prior to addition of the peptides.
(§2) FV derivatives (500 nM) were prepared in assay buffer. Where noted, FV derivatives were pretreated with 10 nM thrombin for 15 minutes at 37° C., followed by the addition of 15 nM hirudin. Samples were diluted to 0.25 nM in assay buffer with 0.1% BSA, and the specific clotting activity was measured in FV-deficient plasma (George King Bio-Medical, Overland Park, Kans.) with TriniCLOT PT Excel (Tcoag, Wicklow, Ireland) as described (Camire et al. (1998) Biochemistry 37:11896-11906). The data are presented as the means±S.D.

[2] = target: T2, FVDT (Homo sapiens, UniProt P12259, DEL839-1519); assay: Direct binding of TFPI to FVDT (FIG. 7C)
T2 construct: amino acids 1-28 are a signal peptide that is cleaved and numbering begins at residue 29; made in house

[3] = target: T2, FVDT; assay: Inhibition of FVDT by the FVBR or TFPI peptide (FIG. 7B); format: biochemical
[4] = target: T3, FXa/FV-DT (Homo sapiens, UniProt P12259, DEL839-1519); assay: Prothrombin activation assay, prothrombinase containing FV-810 (FV-DT); format: biochemical; settings: peptide titrated; 1.4 μM prothrombin, 50 μM PCPS, 25° C.
T3 construct: amino acids 1-28 are a signal peptide that is cleaved and numbering begins at residue 29; made in house
Method: Steady-state initial velocities of prothrombin cleavage were determined discontinuously at 25° C. by measuring the initial rate of thrombin formation. Reaction mixtures contained liposomes (75:25, PC:PS), prothrombin, the indicated Factor V variants, and the Factor V peptides FVBR or s46. The reactions were initiated by adding Factor Xa, and thrombin generation was determined at multiple time points by monitoring the cleavage of the chromogenic thrombin substrate S-2238.
Steady-state initial velocities of prothrombin cleavage were determined discontinuously at 25° C. as described (Camire, R. M. (2002) J. Biol. Chem., 277:37863-37870). Reaction mixtures containing PCPS (50 μM), DAPA (3 μM), prothrombin (1.4 μM), and either rFVa or the indicated FV-810 derivatives were incubated with B-domain peptides (0-10 μM) in assay buffer. […] Prothrombin activation was determined using the chromogenic thrombin substrate 52238 as described (Camire, R. M. (2002) J. Biol. Chem., 277:37863-37870).

[5] = target: T1, FV-810; assay: Displacement of OG488-BR from preformed OG488-BR/FV-810 complex (fluorescence anisotropy); format: binding
[6] = target: T4, FV-810^R709Q (Homo sapiens, UniProt P12259, DEL839-1519/R737Q); assay: Fluorescence anisotropy, binding of OG488-BR to FV-810^R709Q; settings: after incubation with thrombin
T4 construct: amino acids 1-28 are a signal peptide that is cleaved and numbering begins at residue 29; made in house

[7] = target: T5, FV-810^R1545Q (Homo sapiens, UniProt P12259, DEL839-1519/R1573Q); assay: Fluorescence anisotropy, binding of OG488-BR to FV-810^R1545Q
T5 construct: amino acids 1-28 are a signal peptide that is cleaved and numbering begins at residue 29; made in house

[8] = target: T6, rFVa (Homo sapiens, UniProt P12259); assay: Fluorescence anisotropy, direct binding of OG488-BR to rFVa; settings: fluorescently labeled BR peptide, rFVa titrated
T6 construct: thrombin rapidly cleaves Factor V at Arg709 to produce heavy chain (HC); rapidly cleaves at Arg1018 and Arg1545 to produce light chain (LC); made in house
T6 sequence (P12259 29-737 limits assumed): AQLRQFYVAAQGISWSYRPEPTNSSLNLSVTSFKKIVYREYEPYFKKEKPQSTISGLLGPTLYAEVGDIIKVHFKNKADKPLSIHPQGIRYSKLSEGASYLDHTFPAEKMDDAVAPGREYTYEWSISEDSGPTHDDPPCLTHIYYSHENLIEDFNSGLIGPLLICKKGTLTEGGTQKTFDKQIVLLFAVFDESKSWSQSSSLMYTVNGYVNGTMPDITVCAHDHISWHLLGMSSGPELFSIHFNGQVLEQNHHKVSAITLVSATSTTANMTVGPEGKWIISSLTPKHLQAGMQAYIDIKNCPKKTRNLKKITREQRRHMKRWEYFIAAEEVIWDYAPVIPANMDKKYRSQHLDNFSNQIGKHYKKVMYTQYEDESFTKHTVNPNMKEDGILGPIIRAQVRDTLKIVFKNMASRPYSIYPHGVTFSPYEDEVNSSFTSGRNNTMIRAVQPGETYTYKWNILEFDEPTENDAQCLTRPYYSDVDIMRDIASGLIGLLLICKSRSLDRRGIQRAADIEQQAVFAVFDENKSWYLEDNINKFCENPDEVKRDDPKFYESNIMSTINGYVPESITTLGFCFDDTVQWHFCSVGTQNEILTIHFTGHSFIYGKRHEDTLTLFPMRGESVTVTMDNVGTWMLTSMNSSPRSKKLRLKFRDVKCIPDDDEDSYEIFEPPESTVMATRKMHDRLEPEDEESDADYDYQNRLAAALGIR
T6 sequence (P12259 1574-2224 limits assumed): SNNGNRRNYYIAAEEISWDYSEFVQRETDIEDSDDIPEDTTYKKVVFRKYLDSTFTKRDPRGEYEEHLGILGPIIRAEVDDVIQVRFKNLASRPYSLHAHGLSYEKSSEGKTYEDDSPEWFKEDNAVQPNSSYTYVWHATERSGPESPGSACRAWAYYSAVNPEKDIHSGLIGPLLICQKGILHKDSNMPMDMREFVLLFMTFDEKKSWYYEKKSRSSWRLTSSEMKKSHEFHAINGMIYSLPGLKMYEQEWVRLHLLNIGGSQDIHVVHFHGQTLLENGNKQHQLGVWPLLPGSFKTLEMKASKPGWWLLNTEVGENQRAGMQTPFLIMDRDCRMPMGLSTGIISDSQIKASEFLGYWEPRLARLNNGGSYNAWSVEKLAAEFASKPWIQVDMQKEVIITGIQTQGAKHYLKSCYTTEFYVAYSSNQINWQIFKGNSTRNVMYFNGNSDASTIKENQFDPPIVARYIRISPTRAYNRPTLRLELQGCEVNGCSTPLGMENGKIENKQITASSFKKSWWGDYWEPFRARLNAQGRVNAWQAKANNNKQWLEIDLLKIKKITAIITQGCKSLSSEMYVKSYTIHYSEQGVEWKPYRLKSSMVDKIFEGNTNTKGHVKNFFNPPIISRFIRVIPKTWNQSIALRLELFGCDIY

[9] = target: T7, FV-810^QQ (Homo sapiens, UniProt P12259, DEL839-1519/R1573Q/R737Q); assay: Fluorescence anisotropy, binding of OG488-BR to FV-810^QQ; settings: after incubation with thrombin
T7 construct: amino acids 1-28 are a signal peptide that is cleaved and numbering begins at residue 29; made in house

[10] = target: T1, FV-810; assay: Fluorescence anisotropy, direct binding of OG488-BR to FV-810
[11] = target: T1, FV-810; assay: Analytical ultracentrifugation (sedimentation velocity) of QSY7-BR with FV-810; format: binding
Method: Analytical ultracentrifugation of QSY7 C5-maleimide-modified BR (QSY7-BR) was performed in a Beckman Optima XL-I analytical ultracentrifuge using absorbance optics. Sedimentation velocity was measured at 25,000 or 45,000 rpm with two-sector cells in an An-60 Ti rotor at 20° C. Sedimentation of QSY7-BR was followed measuring absorbance at 560 nm in cells containing 5 μM QSY7-BR alone or with 7 μM FV-810 or rFVa in 20 mM HEPES, 150 mM NaCl, and 2 mM CaCl2, pH 7.4. Sedimentation coefficients and molecular weights were determined by g(s*) analysis performed using DCDT+ (Philo, J. S. (2000) Anal. Biochem., 279:151-163).

[12] = target: T6, rFVa; assay: Clotting assay, FV-deficient plasma supplemented with rFVa; format: biochemical; settings: FIG. 8B: 0.25 nM rFVa, peptides at 5 μM
Method: as §1, §2

T1 sequence (P12259 with tags, fused parts or gaps DEL839-1519): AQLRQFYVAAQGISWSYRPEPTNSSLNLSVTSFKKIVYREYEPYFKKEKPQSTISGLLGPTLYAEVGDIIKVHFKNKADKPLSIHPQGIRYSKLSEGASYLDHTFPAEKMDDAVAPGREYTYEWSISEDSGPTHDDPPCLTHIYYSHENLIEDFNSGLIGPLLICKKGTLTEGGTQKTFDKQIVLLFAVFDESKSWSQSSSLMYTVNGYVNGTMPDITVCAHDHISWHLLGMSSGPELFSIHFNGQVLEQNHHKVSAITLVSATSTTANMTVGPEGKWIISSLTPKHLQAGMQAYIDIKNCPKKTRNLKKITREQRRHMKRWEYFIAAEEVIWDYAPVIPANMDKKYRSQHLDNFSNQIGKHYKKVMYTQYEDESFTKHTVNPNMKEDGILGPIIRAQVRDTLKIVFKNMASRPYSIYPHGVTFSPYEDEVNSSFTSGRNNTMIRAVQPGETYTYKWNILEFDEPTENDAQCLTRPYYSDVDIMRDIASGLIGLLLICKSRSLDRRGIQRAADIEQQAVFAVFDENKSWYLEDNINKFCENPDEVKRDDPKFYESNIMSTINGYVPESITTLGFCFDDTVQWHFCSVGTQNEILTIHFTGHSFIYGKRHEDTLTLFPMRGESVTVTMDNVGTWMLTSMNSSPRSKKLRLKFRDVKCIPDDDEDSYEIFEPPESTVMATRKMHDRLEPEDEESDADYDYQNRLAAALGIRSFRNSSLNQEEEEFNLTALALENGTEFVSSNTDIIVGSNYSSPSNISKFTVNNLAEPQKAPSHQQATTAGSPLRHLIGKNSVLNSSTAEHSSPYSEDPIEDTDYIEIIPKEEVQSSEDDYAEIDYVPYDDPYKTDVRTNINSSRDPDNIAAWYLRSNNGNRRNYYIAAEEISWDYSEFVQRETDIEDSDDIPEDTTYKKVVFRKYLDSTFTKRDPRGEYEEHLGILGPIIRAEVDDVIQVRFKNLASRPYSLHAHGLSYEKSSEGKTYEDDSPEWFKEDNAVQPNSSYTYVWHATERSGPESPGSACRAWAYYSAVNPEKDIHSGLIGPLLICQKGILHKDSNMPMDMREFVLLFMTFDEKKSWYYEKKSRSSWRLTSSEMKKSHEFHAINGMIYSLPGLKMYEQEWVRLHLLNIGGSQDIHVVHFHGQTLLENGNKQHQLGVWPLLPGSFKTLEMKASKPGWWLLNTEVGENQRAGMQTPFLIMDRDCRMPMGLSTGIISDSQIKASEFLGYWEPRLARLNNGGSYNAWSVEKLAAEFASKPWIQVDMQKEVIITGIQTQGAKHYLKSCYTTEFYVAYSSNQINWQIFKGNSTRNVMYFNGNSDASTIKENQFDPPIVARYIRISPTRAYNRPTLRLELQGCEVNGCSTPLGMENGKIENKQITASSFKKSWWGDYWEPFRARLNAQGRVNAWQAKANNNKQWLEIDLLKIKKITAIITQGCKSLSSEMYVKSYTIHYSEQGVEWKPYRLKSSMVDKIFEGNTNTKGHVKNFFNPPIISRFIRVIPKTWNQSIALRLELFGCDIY
T5 sequence (P12259 with tags, fused parts or gaps DEL839-1519/R1573Q): as the sequence (P12259 with tags, fused parts or gaps DEL839-1519) above, with R864Q counted along it
T4 sequence (P12259 with tags, fused parts or gaps R737Q/DEL839-1519): as the sequence (P12259 with tags, fused parts or gaps DEL839-1519) above, with R709Q counted along it
T2 sequence (P12259 with tags, fused parts or gaps DEL839-1519): as the sequence (P12259 with tags, fused parts or gaps DEL839-1519) above
T7 sequence (P12259 with tags, fused parts or gaps R737Q/DEL839-1519/R1573Q): as the sequence (P12259 with tags, fused parts or gaps DEL839-1519) above, with R709Q, R864Q counted along it
T3 sequence (P12259 with tags, fused parts or gaps DEL839-1519): as the sequence (P12259 with tags, fused parts or gaps DEL839-1519) above

Molecule: platelet factor 4: cationic platelet factor 4 [reference compound]
inhibition of clotting activity of FV-810 (FV-DT) [1]: neither low molecular weight poly-L-lysine (average Mr=1000-5000) (FIG. 8A) nor the cationic platelet factor 4 affected FV-810 activity

Molecule: acetylated BR peptide: BR peptide acetylated at all Lys residues and the N terminus (Ac-SRAWGESTPLANK(Ac)PGK(Ac)QSGHPK(Ac)FPRVRHK(Ac)SLQVRQDGGK(Ac)SRLK(Ac)K(Ac)SQFLIK(Ac)TRK(Ac)K(Ac)K(Ac)K(Ac)EK(Ac))
inhibition of clotting activity of FV-810 (FV-DT) [1]: no longer inhibited

Molecule: poly-L-lysine [reference compound]
inhibition of clotting activity of FV-810 (FV-DT) [1]: neither low molecular weight poly-L-lysine (average Mr=1000-5000) (FIG. 8A) nor the cationic platelet factor 4 affected FV-810 activity

Molecule: H-C(X1)SRAWGESTPLANKPGKQSGHPKFPRVRHKSLQVRQDGGKSRLKKSQFLIKTRKKKKEK-OH [OG488-BR]
binding of OG488-BR to thrombin-cleaved FV-810^R709Q [6]: did not; also recorded: neither FV-810 nor FV-810^R709Q had detectable binding | Kd ([7]; after incubation with thrombin, read-out: Kd, OG488-BR binding to thrombin-cleaved FV-810^R1545Q): 30 nM | Kd ([7]; pretreated with buffer, assuming n=1, read-out: Kd, OG488-BR binding to FV-810^R1545Q): 2 nM | binding to rFVa/FVa [8]: no detectable binding | Kd, OG488-BR binding to thrombin-treated FV-810^QQ [9]: still bound | binding of OG488-BR to FV-810 with EDTA ([10]; 10 mM EDTA added to the buffer): no binding was observed | stoichiometry n at saturation ([10]; 20 or 40 nM OG488-BR, 50 μM PCPS, 25° C.): 1.27±0.02 mol of FV-810/mol of OG488-BR | Kd ([10]; FV-810 pretreated with buffer, 30 nM OG488-BR, 50 μM PCPS, assuming n=1): 2.1 ± 0.3 nM | Kd ([10]; FV-810 titrated into 20 or 40 nM OG488-BR, 50 μM PCPS, 25° C.): 2.07 ± 0.2 nM | binding of OG488-BR to thrombin-cleaved FV-810 ([10]; after incubation with thrombin): did not; also recorded: neither FV-810 nor FV-810^R709Q had detectable binding

Molecule: H-C(X2)SRAWGESTPLANKPGKQSGHPKFPRVRHKSLQVRQDGGKSRLKKSQFLIKTRKKKKEK-OH [QSY7-BR]
sedimentation coefficient (s^020,w) ([11]; 5 μM QSY7-BR alone, absence of FV-810): 0.98 S (Svedberg) | sedimentation coefficient ([11]; 5 μM QSY7-BR in the presence of 7 μM FV-810): 9.8 S (Svedberg)

Second part, led by results:

direct binding to FVDT [2]: directly bound
Molecule: TFPI peptide: C-terminal tail peptide of tissue factor pathway inhibitor (amino acids 240-265, SEQ ID NO: 4) (KKGFIQRISKGGLIKTKRKRKKQRVK; peptide from human tissue factor pathway inhibitor)
inhibition of FVDT [3]: inhibited FVBT in a manner similar to FVBR

inhibition of prothrombin activation with FV-810 (FV-DT) [4]: inhibited | inhibition of clotting activity of FV-810 (FV-DT) [1]: inhibited | Kd ([5]; 30 nM OG488-BR, 20 nM FV-810, 50 μM PCPS, 25° C., assuming stoichiometry of 1 mol of FV-810/mol of BR peptide): 28.3 ± 0.6 nM | weaker binding to FV-810 than the human BR ([5]; displacement binding experiments): ~10 fold
Molecule: bovine BR: Bos taurus FV basic region Ser938-Lys996 (SRTWGENIPFKNSHGKQSGHPTFLVTRRKPLQDRQDRRNSRLKEGLPLIRTRRKKKEEK)

inhibition of clotting activity of rFVa/FVa [12]: not inhibited
B1: BR+AR peptide: FV residues 968-1007 and 1492-1538, juxtaposed BR and AR sequences from FV-B104 (peptide)
peptide: SGHPKFPRVRHKSLQVRQDGGKSRLKKSQFLIKTRKKKKETDYIEIIPKEEVQSSEDDYAEIDYVPYDDPYKTDVRTNINSSRDPDN
